Series [1] concerns the target T1, Tyrosine-protein kinase SYK (Homo sapiens, UniProt P43405). The series is described as follows: Inhibition of Syk (unknown origin) preincubated for 20 mins followed by 33P-gamma-ATP measured after 120 mins by HotSpot assay.
Series [2] concerns the target T1, Tyrosine-protein kinase SYK. The series is described as follows: Inhibition of Syk (unknown origin) assessed as enzyme activity at 2 uM preincubated for 20 mins followed by 33P-gamma-ATP measured after 120 mins by HotSpot assay relative to control. To be noted: time 140.0 min. Further details: scale not given: the % may be the effect or the level left.
The test system of another series is Ramos. Briefly: Inhibition of […] in serum-starved human Ramos cells incubated for 1 hr followed by anti-human IgM F(ab)2 measured after 5 mins. The format is functional, cell-based.
The subject of a further series is MV4-11. Briefly: Inhibition of cell viability in human MV4-11 cells incubated for 72 hrs by Cell Titer Glo assay. It counts as functional, cell-based. The settings on record: MV4-11, 72 h. On the technique in general: Cellular ATP, detected with luciferase, serves as a proxy for viable cell number.
Series [3] can be described thus: Metabolic stability in human liver microsomes assessed as intrinsic clearance at […] incubated for 60 mins in presence of NADPH by LC-MS/MS analysis. To be noted: read-out: CLH. It counts as ADME, Microsome. For orientation: Liver microsomes are vesicles of endoplasmic reticulum, rich in cytochrome P450 enzymes.
Series [4] is described as follows: Metabolic stability in human liver microsomes assessed as half life at […] incubated for 60 mins in presence of NADPH by LC-MS/MS analysis. The format is ADME, Microsome.
A short description of series [5]: Half life in fasted Sprague-Dawley rat at 1 mg/kg, iv measured for 24 hrs by LC-MS/MS analysis. The format is ADME, organism-based. The settings on record: in vivo.
A short description of series [6]: C0 in fasted Sprague-Dawley rat at 1 mg/kg, iv measured for 24 hrs by LC-MS/MS analysis. It counts as ADME, organism-based. The settings on record: in vivo.
Series [7] is described as follows: AUC in fasted Sprague-Dawley rat at 1 mg/kg, iv measured for 24 hrs by LC-MS/MS analysis. The format is ADME, organism-based. To be noted: in vivo.
A short description of series [8]: Clearance in fasted Sprague-Dawley rat at 1 mg/kg, iv measured for 24 hrs by LC-MS/MS analysis. It counts as ADME, organism-based. The settings on record: in vivo.
A short description of series [9]: Volume of distribution at steady state in fasted Sprague-Dawley rat at 1 mg/kg, iv measured for 24 hrs by LC-MS/MS analysis. It counts as ADME, organism-based. To be noted: in vivo, read-out: Vdss.

As usually defined, the IC50 is the point on the concentration scale where inhibition reaches its midpoint. Compound `Fc1ccc2[nH]c(-c3n[nH]cc3Nc3ncnc4[nH]ccc34)nc2c1` gave an IC50 in series [1] of 33.6 nM.
With `c1ccc2[nH]c(-c3n[nH]cc3Nc3ccnc(NC4CCCC4)n3)nc2c1`, the Activity in series [2] is 36.3%.
`Cc1cc2nc(-c3n[nH]cc3Nc3ccnc4[nH]ccc34)[nH]c2cc1C` showed an IC50 in [1] of 28.2 nM.
As to `Cn1c(-c2n[nH]cc2Nc2ccnc(N)n2)nc2ccccc21`, the Activity in series [2] was found to be 92.3%.
For the compound `Cc1cc2nc(-c3n[nH]cc3Nc3ncnc4c3ccn4C)[nH]c2cc1C`, the IC50 in series [1] is 21.4 nM.
With `c1ccc2[nH]c(-c3n[nH]cc3Nc3ccnc(NCC4CCCCC4)n3)nc2c1`, the Activity in series [2] was 47.9%.
By half-life is commonly meant the time needed for the level to fall by half in the phase considered. Regarding `c1cc(N2CCCC2)c2nc(-c3n[nH]cc3Nc3ncnc4[nH]ccc34)[nH]c2c1`, the 50% inhibitory concentration (IC50) in [1] was 14.5 nM; in the series with Ramos, 26.8 nM; in the series with MV4-11, 82.5 nM. For the same compound, the microsomal CLint in series [3] was 78.1 µL/min/mg. In addition, the half-life in series [4] is 44.4 min.
Take `c1ccc2[nH]c(-c3n[nH]cc3Nc3ncnc4ccccc34)nc2c1`: in series [1], the midpoint of inhibition, the IC50, lay at 107 nM.
The term AUC denotes concentration integrated over time. One may read the clearance as the rate of elimination divided by the concentration. In the case of `CN1CCN(c2ccc3[nH]c(-c4n[nH]cc4Nc4ncnc5[nH]ccc45)nc3c2)CC1`, the IC50 in [1] came out at 1.6 nM; in the series with Ramos, 49.5 nM; in the series on MV4-11, 7.9 nM. Moreover, the microsomal CLint in series [3] worked out at 13.2 µL/min/mg. In addition, the half-life is 105 min in series [4] and 148 min in [5]. The compound further displayed a C0 at 24 h in series [6] of 763 ng/mL. Also, in series [7], the AUC at 24 h was 332 ng·h/mL. The clearance in series [8] stood at 51.7 mL/min/kg. In series [9], the Vd was found to be 6.99 L/kg.
Regarding `O=C(Nc1nccc(Nc2c[nH]nc2-c2nc3ccccc3[nH]2)n1)c1ccccc1`, the half-maximal inhibitory concentration (IC50) in series [1] amounted to 531 nM.
In the case of `COCCOc1ccc2[nH]c(-c3n[nH]cc3Nc3ncnc4[nH]ccc34)nc2c1`, the IC50 in series [1] was 5.5 nM; with Ramos it was 78.9 nM; in the series with MV4-11, 27.6 nM.
As for `COc1cccc2[nH]c(-c3n[nH]cc3Nc3ncnc4[nH]ccc34)nc12`, the 50% inhibitory concentration (IC50) in [1] is 8.4 nM; in the series on Ramos, 29.8 nM; in the series with MV4-11, 3.3 nM. Besides, the microsomal CLint in series [3] was found to be 14.3 µL/min/mg. In series [4], the half-life was 97 min.
Turning to `C[C@@H]1CN(c2ccc3[nH]c(-c4n[nH]cc4Nc4ncnc5[nH]ccc45)nc3c2)C[C@H](C)O1`, the 50% inhibitory concentration (IC50) in [1] came out at 3 nM; in the series with Ramos, 46.8 nM; in the series with MV4-11, 4.9 nM. In [3], the microsomal CLint stood at 16.4 µL/min/mg. In addition, the half-life in series [4] turned out to be 84.3 min.
For `c1nc(Nc2c[nH]nc2-c2nc3cc(N4CCCCC4)ccc3[nH]2)c2cc[nH]c2n1`, the IC50 was 5.9 nM in [1], 184 nM with Ramos and 66.4 nM in the series on MV4-11.
For the compound `COC(=O)c1cc(Nc2c[nH]nc2-c2nc3ccccc3[nH]2)nc(Cl)n1`, the IC50 in [1] amounted to 321 nM.
Take `Cc1cccc2[nH]c(-c3n[nH]cc3Nc3ncnc4[nH]ccc34)nc12`: the half-inhibitory concentration (IC50) in series [1] was found to be 5.6 nM; in the series with Ramos it was 39.2 nM; in the series with MV4-11 it was 11 nM. Further, in series [3], the microsomal CLint is 14.2 µL/min/mg. Also, the half-life in series [4] was 97.8 min.
The compound `c1ccc(Nc2nccc(Nc3c[nH]nc3-c3nc4ccccc4[nH]3)n2)cc1` gave an IC50 in series [1] of 687 nM.
On the same count and under the same terms, the same measure for `c1ccc2[nH]c(-c3n[nH]cc3Nc3ncnc4[nH]ccc34)nc2c1`: 20.5 nM.
Consider `c1cc(N2CCCCC2)c2nc(-c3n[nH]cc3Nc3ncnc4[nH]ccc34)[nH]c2c1`, for which, in series [1], half-maximal inhibition (IC50) required 58 nM.
For `Clc1cc(Nc2c[nH]nc2-c2nc3ccccc3[nH]2)nc(N2CCOCC2)n1`, the Activity in series [2] amounted to 91.2%.
As to `CN(C)CCN(C)c1ccc2[nH]c(-c3n[nH]cc3Nc3ncnc4[nH]ccc34)nc2c1`, the values for the concentration for half-maximal inhibition (IC50) (in series [1]; in the series on Ramos; in the series with MV4-11) were 3.2 nM, 35.9 nM and 9.3 nM, respectively. The microsomal CLint in [3] is 15.9 µL/min/mg. In addition, the half-life in [4] was 87.3 min.
Regarding `CN(C)c1cccc2[nH]c(-c3n[nH]cc3Nc3ncnc4[nH]ccc34)nc12`, the half-inhibitory concentration (IC50) in [1] was 11.1 nM; with Ramos, 18.5 nM; in the series with MV4-11, 20.4 nM. In addition, the microsomal CLint in series [3] was 52.2 µL/min/mg. Moreover, the half-life in series [4] amounted to 33.3 min.
On to `Cc1ccc(CNc2c[nH]nc2-c2nc3ccccc3[nH]2)o1`, for which, in series [2], the Activity worked out at 60.5%.
Regarding `c1ccc2[nH]c(-c3n[nH]cc3NCc3ccncc3)nc2c1`, the IC50 in [1] was found to be 1780 nM.
In series [1], `Nc1nccc(Nc2c[nH]nc2-c2nc3ccccc3s2)n1` yielded a concentration for half-maximal inhibition (IC50) of 163 nM.
For `c1nc(Nc2c[nH]nc2-c2nc3cc(OCCN4CCOCC4)ccc3[nH]2)c2cc[nH]c2n1`, the 50% inhibitory concentration (IC50) in series [1] was 1.1 nM; in the series with Ramos it was 30.7 nM; with MV4-11 it was 12.4 nM. Also, the microsomal CLint in series [3] stood at 63.9 µL/min/mg. For the same compound, in [4], the half-life was determined as 27.2 min.
Consider `c1ccc2[nH]c(-c3n[nH]cc3Nc3ncnc4c3CCC4)nc2c1`, for which, in series [2], the Activity turned out to be 18.5%.
Turning to `CCN(CC)c1ccc2[nH]c(-c3n[nH]cc3Nc3ncnc4[nH]ccc34)nc2c1`, the results for the IC50 (in [1]; in the series with Ramos; with MV4-11) were 8.6 nM, 78.5 nM and 36.1 nM, respectively. For the same compound, the microsomal CLint in series [3] was 75.1 µL/min/mg. For the same compound, in [4], the half-life stood at 18.5 min.
The matching figures for `Cc1cc2nc(-c3n[nH]cc3Nc3ncnc4[nH]ccc34)[nH]c2cc1C`: 3.6 nM, 47.7 nM, 29.8 nM, 70.4 µL/min/mg and 19.7 min.
Take `COc1ccc2[nH]c(-c3n[nH]cc3Nc3ncnc4[nH]ccc34)nc2c1`: the IC50 is 4.9 nM in series [1], 41.5 nM with Ramos and 10.8 nM in the series on MV4-11. Besides, the microsomal CLint in series [3] came to 79.9 µL/min/mg. For the same compound, in series [4], the half-life was found to be 17.3 min.
In turn, `Clc1ccc2[nH]c(-c3n[nH]cc3Nc3ncnc4[nH]ccc34)nc2c1` registered a 50% inhibitory concentration (IC50) in series [1] of 172 nM.
As to `Nc1cc(Nc2c[nH]nc2-c2nc3ccccc3[nH]2)ncn1`, 135 nM corresponded to half-maximal inhibition in series [1] (IC50).
`Cc1nc(Cl)cc(Nc2c[nH]nc2-c2nc3ccccc3[nH]2)n1` returned an IC50 in series [1] of 1220 nM.
Take `Nc1cccc(CNc2c[nH]nc2-c2nc3ccccc3[nH]2)c1`: the Activity in series [2] came to 52.6%.
Take `Cc1nc(Nc2c[nH]nc2-c2nc3cc(C)c(C)cc3[nH]2)c2cc[nH]c2n1`: half-maximal inhibition in series [1] (IC50) required 154 nM.
Compound `Nc1nccc(Nc2c[nH]nc2-c2nc3ccccc3[nH]2)n1` came in with an IC50 in series [1] of 60.1 nM.
Compound `Cc1cc2nc(-c3n[nH]cc3Nc3ncnc4sccc34)[nH]c2cc1C` gave a concentration for half-maximal inhibition (IC50) in series [1] of 77.6 nM.
Compound `CC(C)(C)c1ccc2[nH]c(-c3n[nH]cc3Nc3ncnc4[nH]ccc34)nc2c1` returned a half-maximal inhibitory concentration (IC50) in series [1] of 67.4 nM.
Take `Cc1ccc2[nH]c(-c3n[nH]cc3Nc3ncnc4[nH]ccc34)nc2c1`: the half-inhibitory concentration (IC50) in [1] amounted to 9.3 nM.
Regarding `CCN(CC)CCNc1nccc(Nc2c[nH]nc2-c2nc3ccccc3[nH]2)n1`, the Activity in [2] came to 40.5%.
`CN(C)c1ccc2[nH]c(-c3n[nH]cc3Nc3ncnc4[nH]ccc34)nc2c1`: the IC50 in [1] was found to be 2.7 nM; in the series on Ramos, 61.4 nM; in the series on MV4-11 it was 19.7 nM. Also, the microsomal CLint in [3] came to 30.8 µL/min/mg. In addition, the half-life in [4] was determined as 44.9 min.
In the case of `Clc1nccc(Nc2c[nH]nc2-c2nc3ccccc3[nH]2)n1`, inhibition in [1] was half-maximal at 240 nM (IC50).
Compound `CCNc1c[nH]nc1-c1nc2ccccc2[nH]1` returned an IC50 in series [1] of 15800 nM.
For the compound `c1ccc2[nH]c(-c3n[nH]cc3NC3CCNCC3)nc2c1`, the Activity in series [2] was found to be 82.7%.

The values are drawn from ChEMBL document CHEMBL5620426, “Discovery of 3-(1H-benzo[d]imidazole-2-yl)-1H-pyrazol-4 -amine derivatives as novel and potent syk inhibitors for the treatment of hematological malignancies” (Eur J Med Chem, 2023).
